Reference: PMC12655551, “Design, Synthesis, and Evaluation of Pyrrole-Based Selective MAO-B Inhibitors with Additional AChE Inhibitory and Neuroprotective Properties Identified via Virtual Screening” (Pharmaceuticals, 2025)
Like-named read-outs stand apart in the source and are kept apart here.

Assays:
AChE = target: T1, AChE (Electrophorus electricus, UniProt O42275); test: biochemical; assay type: biochemical; conditions: for inhibition at 200 µM: 200 µM compound; for IC50: means ± SD of three experiments
T1 construct: purchased Sigma-Aldrich, Hamburg, Germany
T1 sequence (O42275 24-633): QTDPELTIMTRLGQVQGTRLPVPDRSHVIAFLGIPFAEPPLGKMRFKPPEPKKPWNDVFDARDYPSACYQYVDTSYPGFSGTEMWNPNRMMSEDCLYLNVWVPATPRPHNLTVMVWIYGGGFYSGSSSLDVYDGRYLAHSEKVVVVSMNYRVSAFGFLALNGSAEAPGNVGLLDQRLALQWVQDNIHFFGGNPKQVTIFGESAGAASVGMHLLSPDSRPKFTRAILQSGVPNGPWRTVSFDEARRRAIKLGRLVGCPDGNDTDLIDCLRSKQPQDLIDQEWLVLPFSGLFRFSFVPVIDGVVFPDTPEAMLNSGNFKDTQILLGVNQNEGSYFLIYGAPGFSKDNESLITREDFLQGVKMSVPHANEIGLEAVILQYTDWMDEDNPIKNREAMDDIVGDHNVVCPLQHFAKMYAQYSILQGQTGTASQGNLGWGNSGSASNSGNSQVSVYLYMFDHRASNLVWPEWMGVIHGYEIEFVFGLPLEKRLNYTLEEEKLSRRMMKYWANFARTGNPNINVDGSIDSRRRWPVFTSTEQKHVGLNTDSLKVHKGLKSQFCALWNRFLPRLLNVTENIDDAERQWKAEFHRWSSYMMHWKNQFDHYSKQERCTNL
Procedure: (§1) AChE and BChE inhibitory activity of the newly synthesized pyrrole-based compounds was measured using the microplate assay described by Ellman et al. with the modifications added by López et al.. The compounds were tested at concentrations between 0.01 and 200 μM. First, they were dissolved in phosphate buffer (PBS) (8 mM K2HPO4, 2.3 mM NaH2PO4, 0.15 M NaCl, pH 7.5), assisted by the addition of no more than 5% MeOH. Then, they were serially diluted with PBS to provide the concentration range needed. Acetylcholinesterase from Electrophorus electricus and butyrylcholinesterase from equine serum (Sigma-Aldrich, Hamburg, Germany) were used with a substrate solution of 5,5′-dithiobis(2-nitrobenzoic acid) (DTNB) with acetylthiocholine iodide (ATCI) or butyrylthiocholine iodide (BTCI), respectively (0.04 M Na2HPO4, 0.2 mM DTNB, 0.24 mM ATCI or BTCI, pH 7.5). A total of 50 μL of AChE or BChE (0.25 U/mL, in PBS) and 50 μL of the tested compound solution were added to the wells. Incubation of the plates was performed at room temperature for 30 min. Then, 100 μL of substrate solution was added to start the enzymatic reaction. […] Enzyme activity was calculated as an inhibition percentage compared to an assay including buffer instead of an inhibitor.

BChE = target: T2, BChE (Equus caballus, UniProt P81908); test: biochemical; conditions: for inhibition at 200 µM: read-out: Inhibition Activity 200 µM BChE
T2 construct: purchased Sigma-Aldrich, Hamburg, Germany; host or cells: equine serum
T2 sequence (P81908 whole entry): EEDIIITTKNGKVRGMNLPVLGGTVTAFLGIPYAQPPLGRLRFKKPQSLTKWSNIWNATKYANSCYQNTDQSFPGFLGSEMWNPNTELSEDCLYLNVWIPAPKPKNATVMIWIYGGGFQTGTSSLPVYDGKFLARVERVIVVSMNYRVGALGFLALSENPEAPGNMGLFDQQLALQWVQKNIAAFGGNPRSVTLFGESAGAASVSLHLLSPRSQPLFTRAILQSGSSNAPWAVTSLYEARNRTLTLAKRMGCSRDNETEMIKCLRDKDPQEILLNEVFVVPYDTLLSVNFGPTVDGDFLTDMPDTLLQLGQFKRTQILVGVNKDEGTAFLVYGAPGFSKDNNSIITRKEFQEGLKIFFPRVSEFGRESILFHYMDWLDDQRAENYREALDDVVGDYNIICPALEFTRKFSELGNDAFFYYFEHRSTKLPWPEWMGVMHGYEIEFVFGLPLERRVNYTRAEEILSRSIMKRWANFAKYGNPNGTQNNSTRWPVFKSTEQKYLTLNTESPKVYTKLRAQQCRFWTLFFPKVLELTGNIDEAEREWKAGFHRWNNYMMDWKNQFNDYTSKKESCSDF
Procedure: as §1

[1] = test system: isolated rat brain synaptosomes; test: Neurotoxicity of compounds alone on isolated rat brain synaptosomes (MTT viability, GSH); assay type: cell-based; conditions: compound alone, 100 μM, vs non-treated synaptosomes
Procedure: (§2) Two types of buffers were used for the isolation of the rat brain synaptosomes and mitochondria. Buffer A was 5 mM HEPES and 0.32 M Sucrose; Buffer B was 290 mM NaCl, 0.95 mM MgCl2 × 2H2O, 10 mM KCl, 2.4 mM CaCl2 × 2H2O, 2.1 mM NaH2PO4, 44 mM HEPES, 13 mM D-Glucose. For the gradient centrifugation, Percoll reagent was used. A stock solution of 90% Percoll was used to prepare 16%, 10% and 7.5% solutions. All the solutions were used as described below. Immediately after harvesting, synaptosomes, microsomes, and mitochondria were incubated with the exam compounds for 1 h. For assessing the possible neurotoxicity of the most MAOB active compounds, the sub-cellular fractions were incubated with 100 µM of them, and for evaluating their possible neuroprotective and antioxidant activities in different models of neurotoxicity, the sub-cellular fractions were incubated with 50µM of them. The protein measurement of all the sub-cellular fractions was made by the method of Lowry et al., 1951 [57].
The synaptosomes were prepared from rat brains by multiple sub-cellular fractionation using a Percoll gradient.
After the incubation, the synaptosomes were centrifuged three times at 15,000× g for 1 min. MTT-test was performed to determine synaptosomal vitality by the method described by Mungarro-Menchaca et al..
The level of GSH was determined by measuring the non-protein SH-groups after precipitation of the proteins with trichloroacetic acid (TCA). The presence of thiols in the supernatant was determined using Elmman’s reagent. The resulting yellow color was measured spectrophotometrically (λ = 412 nm).

[2] = test system: isolated rat brain mitochondria; test: Toxicity of compounds alone on isolated rat brain mitochondria (MDA, GSH); assay type: cell-based; conditions: compound alone, 100 μM, vs non-treated mitochondria
Procedure: as §2
(§3) The mitochondria were prepared by multiple differential fractionation using a Percoll gradient.
(§4) After incubation of the mitochondria, 0.3 mL 0.2% TBA and 0.25 mL sulfuric acid (0.05 M) were added to stop the reaction. The tubes were maintained at 100 °C for 30 min. In the next stage, centrifugation of the tubes was carried out at 3500× g for 10 min. Assessment of the total quantity of MDA formed in each sample was measured in the supernatant at 532 nm.
(§5) After incubation of mitochondria, 0.04% DTNB was mixed with the mitochondrial suspensions in 0.1 M phosphate buffer (pH 7.4). The absorbance of the yellow product was measured at 412 nm.

[3] = test system: isolated rat brain mitochondria; test: t-BuOOH-induced oxidative stress in isolated rat brain mitochondria; assay type: cell-based; conditions: compound 50 µM with t-BuOOH 75 μM
Procedure: as §2, §3
The mitochondria were incubated with 75 μM t-BuOOH [57].
as §4, §5

| Structure (SMILES) | inhibition at 200 µM (AChE) | IC50 (AChE) | IC50 (BChE; means ± SD of three experiments, read-out: BChE IC50) | inhibition at 200 µM (BChE) | decrease of GSH level compared to the control [1] | decrease of synaptosomal viability compared to the control [1] | decrease of GSH level compared to the control [2] | increase of MDA production compared to the control [2] | decrease of MDA production compared to the toxic agent [3] | preservation of GSH level compared to toxic t-BuOOH [3] | fold lower AChE inhibition potency compared to EM-DC-2 (AChE; ratio of AChE potencies) | IC50 (BChE; BChE IC50, means ± SD of three experiments) |
| --- | --- | --- | --- | --- | --- | --- | --- | --- | --- | --- | --- | --- |
| Cc1ccc(C)n1-c1ccc(CC(=O)O)cc1 [EM-DC-27, [4-(2,5-dimethyl-1H-pyrrol-1-yl)phenyl]acetic acid] | 26.5 ± 2.36% | > 200 µM | > 200 µM | 0% | 30% | 25% | 25% | 70% | 48% | 30% |  |  |
| Cc1ccc(C)n1C(Cc1cnc[nH]1)C(=O)O (stereo not drawn) [EM-DC-19, 2-(2,5-dimethyl-1H-pyrrol-1-yl)-3-(2H-imidazol-4-yl)propanoic acid] | 73.98 ± 0.59% | 76.2 ± 6.12 µM |  | 18.03 ± 0.17% | 30% | 25% | 25% | 50% | 52% | 30% | approximately 100 fold | > 200 µM |
